The assay has as its system microfilariae of Dirofilaria immitis. In words: Dirofilaria immitis, Microfilaria (DiMF) In vitro Assay. To be noted: 72 h, read-out: DiMF Minimum Effective Dose (MED), approximately 72 hours incubation, microfilariae assessed for survival or paralysis. Type of assay: cell-based.

The structures appear in SMILES notation.

As for `CC(C)C[C@H]1C(=O)O[C@H](Cc2ccc(Cn3cc(Br)c(C#N)n3)cc2)C(=O)N(C)[C@@H](CC(C)C)C(=O)O[C@H](C)C(=O)N(C)[C@@H](CC(C)C)C(=O)O[C@H](Cc2ccc(Cn3cc(N)cn3)cc2)C(=O)N(C)[C@@H](CC(C)C)C(=O)O[C@H](C)C(=O)N1C` [Example 1a-32, 1-(4-(((2R,5S,8R,11S,14R,17S,20R,23S)-14-(4-((4-amino-1H-pyrazol-1-yl)methyl)benzyl)-5,11,17,23-tetraisobutyl-4,8,10,16,20,22-hexamethyl-3,6,9,12,15,18,21,24-octaoxo-1,7,13,19-tetraoxa-4,10,16,22-tetraazacyclotetracosan-2-yl)methyl)benzyl)-4-bromo-1H-pyrazole-3-carbonitrile], the minimal effective concentration is 0.01 to 0.1 µM.

On to `COc1cnn(Cc2cccc(C[C@H]3OC(=O)[C@H](CC(C)C)N(C)C(=O)[C@@H](C)OC(=O)[C@H](CC(C)C)N(C)C(=O)[C@@H](Cc4cccc(Cn5cc(OC)cn5)c4)OC(=O)[C@H](CC(C)C)N(C)C(=O)[C@@H](C)OC(=O)[C@H](CC(C)C)N(C)C3=O)c2)c1` [Example 4-9, (3S,6R,9S,12R,15S,18R,21S,24R)-3,9,15,21-tetraisobutyl-6,18-bis(3-((4-methoxy-1H-pyrazol-1-yl)methyl)benzyl)-4,10,12,16,22,24-hexamethyl-1,7,13,19-tetraoxa-4,10,16,22-tetraazacyclotetracosan-2,5,8,11,14,17,20,23-octaone], for which the minimal effective concentration fell in the range of 0.01 to 0.1 µM.

`CC(C)C[C@H]1C(=O)O[C@H](Cc2ccc(Cn3cc(OCCN)cn3)cc2)C(=O)N(C)[C@@H](CC(C)C)C(=O)O[C@H](C)C(=O)N(C)[C@@H](CC(C)C)C(=O)O[C@H](Cc2ccc(Cn3cc(OCCN)cn3)cc2)C(=O)N(C)[C@@H](CC(C)C)C(=O)O[C@H](C)C(=O)N1C` [Example 1b-185, (3S,6R,9S,12R,15S,18R,21S,24R)-6,18-bis(4-((4-(2-aminoethoxy)-1H-pyrazol-1-yl)methyl)benzyl)-3,9,15,21-tetraisobutyl-4,10,12,16,22,24-hexamethyl-1,7,13,19-tetraoxa-4,10,16,22-tetraazacyclotetracosan-2,5,8,11,14,17,20,23-octaone]: the minimal effective concentration was 0.01 to 0.1 µM.

On to `CC(C)C[C@H]1C(=O)O[C@H](Cc2ccc(Cn3nccc3C3(N)CC3)cc2)C(=O)N(C)[C@@H](CC(C)C)C(=O)O[C@H](C)C(=O)N(C)[C@@H](CC(C)C)C(=O)O[C@H](Cc2ccc(Cn3nccc3C3(N)CC3)cc2)C(=O)N(C)[C@@H](CC(C)C)C(=O)O[C@H](C)C(=O)N1C` [Example 1b-218, (3S,6R,9S,12R,15S,18R,21S,24R)-6,18-bis(4-((5-(1-aminocyclopropyl)-1H-pyrazol-1-yl)methyl)benzyl)-3,9,15,21-tetraisobutyl-4,10,12,16,22,24-hexamethyl-1,7,13,19-tetraoxa-4,10,16,22-tetraazacyclotetracosan-2,5,8,11,14,17,20,23-octaone], for which the minimal effective concentration fell in the range of 0.01 to 0.1 µM.

With `CC(C)C[C@H]1C(=O)O[C@H](Cc2ccc(Cn3cc(C#CC(C)(C)C)cn3)cc2)C(=O)N(C)[C@@H](CC(C)C)C(=O)O[C@H](C)C(=O)N(C)[C@@H](CC(C)C)C(=O)O[C@H](Cc2ccccc2)C(=O)N(C)[C@@H](CC(C)C)C(=O)O[C@H](C)C(=O)N1C` [Example 2-71, (3S,6R,9S,12R,15S,18R,21S,24R)-6-benzyl-18-(4-((4-(3,3-dimethylbut-1-yn-1-yl)-1H-pyrazol-1-yl)methyl)benzyl)-3,9,15,21-tetraisobutyl-4,10,12,16,22,24-hexamethyl-1,7,13,19-tetraoxa-4,10,16,22-tetraazacyclotetracosan-2,5,8,11,14,17,20,23-octaone], the minimal effective concentration lay within 0.01 to 0.1 µM.

Turning to `CC(=O)NCc1cnn(Cc2ccc(C[C@H]3OC(=O)[C@H](CC(C)C)N(C)C(=O)[C@@H](C)OC(=O)[C@H](CC(C)C)N(C)C(=O)[C@@H](Cc4ccccc4)OC(=O)[C@H](CC(C)C)N(C)C(=O)[C@@H](C)OC(=O)[C@H](CC(C)C)N(C)C3=O)cc2)c1` [Example 2-52, N-((1-(4-(((2R,5S,8R,11S,14R,17S,20R,23S)-14-benzyl-5,11,17,23-tetraisobutyl-4,8,10,16,20,22-hexamethyl-3,6,9,12,15,18,21,24-octaoxo-1,7,13,19-tetraoxa-4,10,16,22-tetraazacyclotetracosan-2-yl)methyl)benzyl)-1H-pyrazol-4-yl)methyl)acetamide], the minimal effective concentration was 0.01 to 0.1 µM.

Regarding `CC(C)C[C@H]1C(=O)O[C@H](Cc2ccc(Cn3cc(OC4COC4)cn3)cc2)C(=O)N(C)[C@@H](CC(C)C)C(=O)O[C@H](C)C(=O)N(C)[C@@H](CC(C)C)C(=O)O[C@H](Cc2ccc(Cn3cc(OC4COC4)cn3)cc2)C(=O)N(C)[C@@H](CC(C)C)C(=O)O[C@H](C)C(=O)N1C` [Example 1b-142, (3S,6R,9S,12R,15S,18R,21S,24R)-3,9,15,21-tetraisobutyl-4,6,10,16,18,22-hexamethyl-12,24-bis(4-((4-(oxetan-3-yloxy)-1H-pyrazol-1-yl)methyl)benzyl)-1,7,13,19-tetraoxa-4,10,16,22-tetraazacyclotetracosan-2,5,8,11,14,17,20,23-octaone], the minimal effective concentration fell in the range of 0.001 to 0.01 µM.

As to `CC(C)C[C@H]1C(=O)O[C@H](Cc2ccc(Cn3ccnc3I)cc2)C(=O)N(C)[C@@H](CC(C)C)C(=O)O[C@H](C)C(=O)N(C)[C@@H](CC(C)C)C(=O)O[C@H](Cc2ccccc2)C(=O)N(C)[C@@H](CC(C)C)C(=O)O[C@H](C)C(=O)N1C` [Example 8-10, (3S,6R,9S,12R,15S,18R,21S,24R)-6-benzyl-18-(4-((2-iodo-1H-imidazol-1-yl)methyl)benzyl)-3,9,15,21-tetraisobutyl-4,10,12,16,22,24-hexamethyl-1,7,13,19-tetraoxa-4,10,16,22-tetraazacyclotetracosan-2,5,8,11,14,17,20,23-octaone], the minimal effective concentration fell in the range of 0.01 to 0.1 µM.

On to `CC(C)C[C@H]1C(=O)O[C@H](Cc2ccc(Cn3cc(C4CCCC4)cn3)cc2)C(=O)N(C)[C@@H](CC(C)C)C(=O)O[C@H](C)C(=O)N(C)[C@@H](CC(C)C)C(=O)O[C@H](Cc2ccccc2)C(=O)N(C)[C@@H](CC(C)C)C(=O)O[C@H](C)C(=O)N1C` [Example 2-38, (3S,6R,9S,12R,15S,18R,21S,24R)-6-benzyl-18-(4-((4-cyclopentyl-1H-pyrazol-1-yl)methyl)benzyl)-3,9,15,21-tetraisobutyl-4,10,12,16,22,24-hexamethyl-1,7,13,19-tetraoxa-4,10,16,22-tetraazacyclotetracosan-2,5,8,11,14,17,20,23-octaone], for which the minimal effective concentration was 0.01 to 0.1 µM.

Turning to `CCc1nccn1Cc1ccc(C[C@H]2OC(=O)[C@H](CC(C)C)N(C)C(=O)[C@@H](C)OC(=O)[C@H](CC(C)C)N(C)C(=O)[C@@H](Cc3cccc(Cn4ccnc4CC)c3)OC(=O)[C@H](CC(C)C)N(C)C(=O)[C@@H](C)OC(=O)[C@H](CC(C)C)N(C)C2=O)cc1` [Example 7-4, (3S,6R,9S,12R,15S,18R,21S,24R)-6-[[3-[(2-ethylimidazol-1-yl)methyl]phenyl]methyl]-18-[[4-[(2-ethylimidazol-1-yl)methyl]phenyl]methyl]-3,9,15,21-tetraisobutyl-4,10,12,16,22,24-hexamethyl-1,7,13,19-tetraoxa-4,10,16,22-tetrazacyclotetracosane-2,5,8,11,14,17,20,23-octaone], the minimal effective concentration is 0.01 to 0.1 µM.

As for `CC(C)C[C@H]1C(=O)O[C@H](Cc2ccc(Cn3ccc4cccnc43)cc2)C(=O)N(C)[C@@H](CC(C)C)C(=O)O[C@H](C)C(=O)N(C)[C@@H](CC(C)C)C(=O)O[C@H](Cc2ccccc2)C(=O)N(C)[C@@H](CC(C)C)C(=O)O[C@H](C)C(=O)N1C` [Example 10-14, (3S,6R,9S,12R,15S,18R,21S,24R)-6-(4-((1H-pyrrolo[2,3-b]pyridin-1-yl)methyl)benzyl)-18-benzyl-3,9,15,21-tetraisobutyl-4,10,12,16,22,24-hexamethyl-1,7,13,19-tetraoxa-4,10,16,22-tetraazacyclotetracosan-2,5,8,11,14,17,20,23-octaone], the minimal effective concentration was in the range of 0.01 to 0.1 µM.

Regarding `CCOc1cc(C)n(Cc2ccc(C[C@H]3OC(=O)[C@H](CC(C)C)N(C)C(=O)[C@@H](C)OC(=O)[C@H](CC(C)C)N(C)C(=O)[C@@H](Cc4ccc(Cn5nc(OCC)cc5C)cc4)OC(=O)[C@H](CC(C)C)N(C)C(=O)[C@@H](C)OC(=O)[C@H](CC(C)C)N(C)C3=O)cc2)n1` [Example 1b-159, (3S,6R,9S,12R,15S,18R,21S,24R)-6,18-bis(4-((3-ethoxy-5-methyl-1H-pyrazol-1-yl)methyl)benzyl)-3,9,15,21-tetraisobutyl-4,10,12,16,22,24-hexamethyl-1,7,13,19-tetraoxa-4,10,16,22-tetraazacyclotetracosan-2,5,8,11,14,17,20,23-octaone], the minimal effective concentration lay in the range of 0.01 to 0.1 µM.

In the case of `Cc1nccn1Cc1ccc(C[C@H]2OC(=O)[C@H](CC(C)C)N(C)C(=O)[C@@H](C)OC(=O)[C@H](CC(C)C)N(C)C(=O)[C@@H](Cc3ccc(Cn4ccnc4C)cc3)OC(=O)[C@H](CC(C)C)N(C)C(=O)[C@@H](C)OC(=O)[C@H](CC(C)C)N(C)C2=O)cc1` [Example 6-1, (3S,6R,9S,12R,15S,18R,21S,24R)-3,9,15,21-tetraisobutyl-4,6,10,16,18,22-hexamethyl-12,24-bis[[4-[(2-methylimidazol-1-yl)methyl]phenyl]methyl]-1,7,13,19-tetraoxa-4,10,16,22-tetrazacyclotetracosane-2,5,8,11,14,17,20,23-octaone], the minimal effective concentration fell in the range of 0.001 to 0.01 µM.

As for `CCc1nn(Cc2ccc(C[C@H]3OC(=O)[C@H](CC(C)C)N(C)C(=O)[C@@H](C)OC(=O)[C@H](CC(C)C)N(C)C(=O)[C@@H](Cc4ccc(Cn5nc(CC)c(N)c5CC)cc4)OC(=O)[C@H](CC(C)C)N(C)C(=O)[C@@H](C)OC(=O)[C@H](CC(C)C)N(C)C3=O)cc2)c(CC)c1N` [Example 1b-133, (3S,6R,9S,12R,15S,18R,21S,24R)-6,18-bis(4-((4-amino-3,5-diethyl-1H-pyrazol-1-yl)methyl)benzyl)-3,9,15,21-tetraisobutyl-4,10,12,16,22,24-hexamethyl-1,7,13,19-tetraoxa-4,10,16,22-tetraazacyclotetracosan-2,5,8,11,14,17,20,23-octaone], the minimal effective concentration was 0.01 to 0.1 µM.

The record behind these values is patent publication US11331369B2, “Endoparasitic depsipeptides” (Zoetis Services LLC, priority 2017, dated 2022).
